Assay results from ChEMBL document CHEMBL3046308, “Synthesis of phenoxyphenyl pyridine and pyrazine carboxamides. Activity against Cydia pomonella (L.) eggs” (2000).

Experiments:
Format in all cases: functional
Cydia pomonella [1] = experiment: Ovicidal activity against 24 hr old Cydia pomonella (codling moth) eggs assessed as development period at 5 mg/ml sprayed at 19 +/- 1 degC
Cydia pomonella [2] = experiment: Ovicidal activity against 24 hr old Cydia pomonella (codling moth) eggs assessed as efficacy at 5 mg/ml sprayed at 19 +/- 1 degC
Cydia pomonella [3] = experiment: Ovicidal activity against 24 hr old Cydia pomonella (codling moth) eggs assessed as mortality at 5 mg/ml sprayed at 19 +/- 1 degC

Compound `C=CCOC(=O)Nc1ccc(Oc2ccc(N)cc2)cc1` has a Time (Cydia pomonella [1]) of 11.3 days, an Efficacy (Cydia pomonella [2]) of 35% and a mortality at 5000 µg/mL (Cydia pomonella [3]) of 48.1%.
Work on `O=C(Nc1ccc(Oc2ccccc2)cc1)c1cccnc1` yielded a Time (Cydia pomonella [1]) of 10.6 days, an Efficacy (Cydia pomonella [2]) of 26.3% and a mortality at 5000 µg/mL (Cydia pomonella [3]) of 40.9%.
`C=CCOC(=O)Nc1ccc(Oc2ccc(NC(=O)c3cccnc3)cc2)cc1` showed a Time (Cydia pomonella [1]) of 10.2 days and a mortality at 5000 µg/mL (Cydia pomonella [3]) of 34.4%.
Work on `CC(=O)Nc1ccc(Oc2ccc(NC(=O)c3ccncc3)cc2)cc1` yielded a Time (Cydia pomonella [1]) of 10.1 days and a mortality at 5000 µg/mL (Cydia pomonella [3]) of 52.7%.
`CC(=O)Nc1ccc(Oc2ccc(NC(=O)c3ccccn3)cc2)cc1` showed a Time (Cydia pomonella [1]) of 10.9 days, an Efficacy (Cydia pomonella [2]) of 47.1% and a mortality at 5000 µg/mL (Cydia pomonella [3]) of 67.3%.
`O=C(Nc1ccc(Oc2ccccc2)cc1)c1ccncc1` showed a Time (Cydia pomonella [1]) of 10 days and a mortality at 5000 µg/mL (Cydia pomonella [3]) of 33.4%.
Compound `C=CCOC(=O)Nc1ccc(Oc2ccc(NC(=O)c3ccncc3)cc2)cc1` has a Time (Cydia pomonella [1]) of 11.7 days, an Efficacy (Cydia pomonella [2]) of 42.5% and a mortality at 5000 µg/mL (Cydia pomonella [3]) of 53.8%.
`C=CCOC(=O)Nc1ccc(Oc2ccc(NC(=O)c3ccccn3)cc2)cc1` showed a Time (Cydia pomonella [1]) of 11.1 days, an Efficacy (Cydia pomonella [2]) of 27.2% and a mortality at 5000 µg/mL (Cydia pomonella [3]) of 40.7%.
For `O=C(Nc1ccc(Oc2ccccc2)cc1)c1ccccn1`, the Time (Cydia pomonella [1]) was 10.8 days, the Efficacy (Cydia pomonella [2]) was 40.7% and the mortality at 5000 µg/mL (Cydia pomonella [3]) was 52.4%.
`C=CCOC(=O)Nc1ccc(Oc2ccc(NC(=O)c3cnccn3)cc2)cc1` gave a Time (Cydia pomonella [1]) of 9.5 days and a mortality at 5000 µg/mL (Cydia pomonella [3]) of 25.3%.
With `CC(=O)Nc1ccc(Oc2ccc(NC(=O)c3cccnc3)cc2)cc1` the Time (Cydia pomonella [1]) was 10.6 days and the mortality at 5000 µg/mL (Cydia pomonella [3]) was 57.6%.
For `O=C(Nc1ccc(Oc2ccccc2)cc1)c1cnccn1`, the Time (Cydia pomonella [1]) was 9.7 days and the mortality at 5000 µg/mL (Cydia pomonella [3]) was 29.2%.
Work on `CCOC(=O)NCCOc1ccc(Oc2ccccc2)cc1` [PHENOXYCARB] yielded an Efficacy (Cydia pomonella [2]) of 99.1% and a mortality at 5000 µg/mL (Cydia pomonella [3]) of 99.3%.
In the case of `CC(=O)Nc1ccc(Oc2ccc(NC(=O)c3cnccn3)cc2)cc1`, the Time (Cydia pomonella [1]) was 11 days, the Efficacy (Cydia pomonella [2]) was 49.1% and the mortality at 5000 µg/mL (Cydia pomonella [3]) was 68.4%.
